{"source": "PubChem BioAssay (NCI)", "experiment_in_all_cases": "inhibition of tumour cell growth, NCI panel, 48 h", "key": {"BT-549 breast": {"tested_on": "BT-549 breast"}, "OVCAR-8 ovarian": {"tested_on": "OVCAR-8 ovarian"}, "UACC-62 melanoma": {"tested_on": "UACC-62 melanoma"}, "SK-MEL-5 melanoma": {"tested_on": "SK-MEL-5 melanoma"}, "HCT-116 colon": {"tested_on": "HCT-116 colon"}, "SK-MEL-2 melanoma": {"tested_on": "SK-MEL-2 melanoma"}, "SN12C renal": {"tested_on": "SN12C renal"}, "OVCAR-4 ovarian": {"tested_on": "OVCAR-4 ovarian"}, "NCI-H23 lung": {"tested_on": "NCI-H23 lung"}, "IGROV1 ovarian": {"tested_on": "IGROV1 ovarian"}, "786-0 renal": {"tested_on": "786-0 renal"}, "A498 renal": {"tested_on": "A498 renal"}, "KM12 colon": {"tested_on": "KM12 colon"}, "T-47D breast": {"tested_on": "T-47D breast"}, "SK-MEL-28 melanoma": {"tested_on": "SK-MEL-28 melanoma"}, "NCI/ADR-RES ovarian": {"tested_on": "NCI/ADR-RES ovarian"}, "COLO 205 colon": {"tested_on": "COLO 205 colon"}, "M14 melanoma": {"tested_on": "M14 melanoma"}, "SW-620 colon": {"tested_on": "SW-620 colon"}, "EKVX NSCLC": {"tested_on": "EKVX NSCLC"}, "HOP-62 NSCLC": {"tested_on": "HOP-62 NSCLC"}, "SNB-19 CNS": {"tested_on": "SNB-19 CNS"}, "MALME-3M melanoma": {"tested_on": "MALME-3M melanoma"}, "NCI-H522 lung": {"tested_on": "NCI-H522 lung"}, "SNB-75 CNS": {"tested_on": "SNB-75 CNS"}, "SF-539 CNS": {"tested_on": "SF-539 CNS"}, "MDA-MB-231 breast": {"tested_on": "MDA-MB-231 breast"}, "SK-OV-3 ovarian": {"tested_on": "SK-OV-3 ovarian"}, "UACC-257 melanoma": {"tested_on": "UACC-257 melanoma"}}, "note": "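Growth conditions: 96-well plates. Treatment: test compound, 48 hours, 5 concentrations. Analysis: linear interpolation between bracketing concentrations; unreached endpoints set to highest concentration. GI50: concentration for 50% inhibition of growth. At the TGI there is no net growth.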", "data": [{"compound": "O=C(Nc1ccc(-n2ccc3c(NC(=O)c4ccccc4)nccc32)cc1)c1cccc(C(F)(F)F)c1", "values": [{"measurement": "GI50", "setting": "BT-549 breast", "value": 2.03, "unit": "µM"}, {"measurement": "TGI", "setting": "BT-549 breast", "value": 22.3, "unit": "µM"}, {"measurement": "GI50", "setting": "OVCAR-8 ovarian", "value": 0.393, "unit": "µM"}, {"measurement": "TGI", "setting": "OVCAR-8 ovarian", "value": 10.3, "unit": "µM"}, {"measurement": "GI50", "setting": "UACC-62 melanoma", "value": 0.714, "unit": "µM"}, {"measurement": "TGI", "setting": "UACC-62 melanoma", "value": 8.48, "unit": "µM"}, {"measurement": "GI50", "setting": "SK-MEL-5 melanoma", "value": 0.194, "unit": "µM"}, {"measurement": "TGI", "setting": "SK-MEL-5 melanoma", "value": 6.65, "unit": "µM"}, {"measurement": "GI50", "setting": "HCT-116 colon", "value": 0.177, "unit": "µM"}, {"measurement": "TGI", "setting": "HCT-116 colon", "value": 6.92, "unit": "µM"}, {"measurement": "GI50", "setting": "SK-MEL-2 melanoma", "value": 1.29, "unit": "µM"}, {"measurement": "TGI", "setting": "SK-MEL-2 melanoma", "value": 7.27, "unit": "µM"}, {"measurement": "GI50", "setting": "SN12C renal", "value": 1.67, "unit": "µM"}, {"measurement": "TGI", "setting": "SN12C renal", "value": "> 35.6", "unit": "µM"}, {"measurement": "GI50", "setting": "OVCAR-4 ovarian", "value": 2.7, "unit": "µM"}, {"measurement": "TGI", "setting": "OVCAR-4 ovarian", "value": 22.6, "unit": "µM"}, {"measurement": "GI50", "setting": "NCI-H23 lung", "value": 3.88, "unit": "µM"}, {"measurement": "TGI", "setting": "NCI-H23 lung", "value": "> 36.1", "unit": "µM"}, {"measurement": "GI50", "setting": "IGROV1 ovarian", "value": 1.4, "unit": "µM"}, {"measurement": "TGI", "setting": "IGROV1 ovarian", "value": "> 50", "unit": "µM"}, {"measurement": "GI50", "setting": "786-0 renal", "value": 0.728, "unit": "µM"}, {"measurement": "TGI", "setting": "786-0 renal", "value": 9.14, "unit": "µM"}, {"measurement": "GI50", "setting": "A498 renal", "value": 0.905, "unit": "µM"}, {"measurement": "TGI", "setting": "A498 renal", "value": 15.6, "unit": "µM"}, {"measurement": "GI50", "setting": "KM12 colon", "value": 0.4, "unit": "µM"}, {"measurement": "TGI", "setting": "KM12 colon", "value": 7.64, "unit": "µM"}, {"measurement": "GI50", "setting": "T-47D breast", "value": 4.66, "unit": "µM"}, {"measurement": "TGI", "setting": "T-47D breast", "value": 30.9, "unit": "µM"}, {"measurement": "GI50", "setting": "SK-MEL-28 melanoma", "value": 2.4, "unit": "µM"}, {"measurement": "TGI", "setting": "SK-MEL-28 melanoma", "value": 11, "unit": "µM"}, {"measurement": "GI50", "setting": "NCI/ADR-RES ovarian", "value": 0.724, "unit": "µM"}, {"measurement": "TGI", "setting": "NCI/ADR-RES ovarian", "value": 11.9, "unit": "µM"}, {"measurement": "GI50", "setting": "COLO 205 colon", "value": 1.42, "unit": "µM"}, {"measurement": "TGI", "setting": "COLO 205 colon", "value": 10.3, "unit": "µM"}, {"measurement": "GI50", "setting": "M14 melanoma", "value": 1.38, "unit": "µM"}, {"measurement": "TGI", "setting": "M14 melanoma", "value": 9.06, "unit": "µM"}, {"measurement": "GI50", "setting": "SW-620 colon", "value": 0.381, "unit": "µM"}, {"measurement": "TGI", "setting": "SW-620 colon", "value": 7.32, "unit": "µM"}, {"measurement": "GI50", "setting": "EKVX NSCLC", "value": 4.33, "unit": "µM"}, {"measurement": "TGI", "setting": "EKVX NSCLC", "value": "> 50", "unit": "µM"}, {"measurement": "GI50", "setting": "HOP-62 NSCLC", "value": 2.02, "unit": "µM"}, {"measurement": "TGI", "setting": "HOP-62 NSCLC", "value": 14.5, "unit": "µM"}, {"measurement": "GI50", "setting": "SNB-19 CNS", "value": 0.729, "unit": "µM"}, {"measurement": "TGI", "setting": "SNB-19 CNS", "value": 20.1, "unit": "µM"}, {"measurement": "GI50", "setting": "MALME-3M melanoma", "value": 2.04, "unit": "µM"}, {"measurement": "TGI", "setting": "MALME-3M melanoma", "value": 12.2, "unit": "µM"}, {"measurement": "GI50", "setting": "NCI-H522 lung", "value": 1.07, "unit": "µM"}, {"measurement": "TGI", "setting": "NCI-H522 lung", "value": "> 13.5", "unit": "µM"}, {"measurement": "GI50", "setting": "SNB-75 CNS", "value": 0.707, "unit": "µM"}, {"measurement": "TGI", "setting": "SNB-75 CNS", "value": 6.59, "unit": "µM"}, {"measurement": "GI50", "setting": "SF-539 CNS", "value": 0.47, "unit": "µM"}, {"measurement": "TGI", "setting": "SF-539 CNS", "value": 11.5, "unit": "µM"}, {"measurement": "GI50", "setting": "MDA-MB-231 breast", "value": 2.88, "unit": "µM"}, {"measurement": "TGI", "setting": "MDA-MB-231 breast", "value": 14.7, "unit": "µM"}, {"measurement": "GI50", "setting": "SK-OV-3 ovarian", "value": 0.879, "unit": "µM"}, {"measurement": "TGI", "setting": "SK-OV-3 ovarian", "value": 15.4, "unit": "µM"}, {"measurement": "GI50", "setting": "UACC-257 melanoma", "value": 2.09, "unit": "µM"}, {"measurement": "TGI", "setting": "UACC-257 melanoma", "value": "> 21.6", "unit": "µM"}]}]}
